# Measured values from article PMC5454865 (International Journal of Molecular Sciences, 2017).
# “And” between values parts separate entries of the source, which are not always exact repeats. Equal values may be shown once. Read-outs that look alike come from different tables or passages of the source.
# Key:
# CYP2C9 [1] = target: T1, CYP2C9 (Homo sapiens, UniProt P11712); design: incubated with human liver microsomes (0.1 mg/mL); tissue Corning Life Sciences 452161; host or cells: pooled human liver microsomes; settings: cited from earlier work
# CYP3A4 [2] = target: T2, CYP3A4 (Homo sapiens, UniProt P08684); settings: human liver microsomes; cited from earlier work
# CYP2B6 = target: T3, CYP2B6 (Homo sapiens, UniProt P20813); test: CYP2B6-catalyzed bupropion hydroxylation, LC-MS/MS; assay type: in vitro ADME; settings: human liver microsomes
# T3 construct: pooled human liver microsomes (0.2 mg/mL), 50 μM bupropion; tissue Corning Life Sciences 452161; host or cells: pooled human liver microsomes
# T3 sequence (P20813 1-491): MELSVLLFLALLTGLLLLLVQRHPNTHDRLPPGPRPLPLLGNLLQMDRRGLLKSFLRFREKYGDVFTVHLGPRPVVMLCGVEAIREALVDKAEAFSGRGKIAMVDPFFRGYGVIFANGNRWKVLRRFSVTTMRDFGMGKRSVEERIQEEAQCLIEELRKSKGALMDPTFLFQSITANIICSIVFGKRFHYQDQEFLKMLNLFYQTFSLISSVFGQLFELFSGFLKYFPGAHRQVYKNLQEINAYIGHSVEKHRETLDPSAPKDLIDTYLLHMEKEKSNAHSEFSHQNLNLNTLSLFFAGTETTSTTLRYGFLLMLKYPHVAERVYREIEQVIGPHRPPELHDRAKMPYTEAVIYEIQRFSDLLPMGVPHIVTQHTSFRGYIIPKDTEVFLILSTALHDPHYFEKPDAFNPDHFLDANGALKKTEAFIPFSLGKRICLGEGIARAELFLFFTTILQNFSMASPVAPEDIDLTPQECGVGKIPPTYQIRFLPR
# Experimental: After 3 min pre-incubation at 37 °C, the reaction mixtures were incubated with the addition of NADPH in a shaking water bath for 15 min at 37 °C. The reaction was stopped by adding 100 μL of ice-cold d9-1′-hydroxybufuralol (internal standard) in methanol. The mixtures were centrifuged at 13,000× g for 4 min at 4 °C. All incubations were performed in triplicate, and the average values were used for the subsequent calculations. […] Then, the reaction mixtures were incubated with the addition of NADPH and bupropion for 15 min at 37 °C. The control reaction was performed by the addition of acetonitrile instead of the test compounds. Hydroxybupropion concentrations were quantified using the LC-MS/MS method described above; the SRM transitions for hydroxybupropion and d9-1′-hydroxybufuralol were 256.1 > 238.0 and 287.2 > 187.0, respectively.
# The IC50 values were calculated using SigmaPlot ver.
# CYP2D6 [3] = target: T4, CYP2D6 (Homo sapiens, UniProt P10635); settings: microsomes
# Experimental: (§1) After 3 min pre-incubation at 37 °C, the reaction mixtures were incubated for 15 min at 37 °C with the addition of NADPH in a shaking water bath. The reaction was stopped by adding 100 μL of ice-cold methanol containing internal standards (d9-1′-hydroxybufuralol for 1′-hydroxybufuralol, 4′-hydroxydiclofenac, 7-hydroxycoumarin, 1′-hydroxymidazolam, and 4′-hydroxymephenytoin; ^13C2, ^15N-acetaminophen for acetaminophen and N-desethylamodiaquine). The mixtures were centrifuged at 13,000× g for 4 min at 4 °C. All assays were performed in triplicate and the average values were used for the subsequent calculations. […] Then, the reaction mixtures were incubated with addition of the seven-CYP probe substrate cocktail for 15 min at 37 °C. The control reaction was performed by adding acetonitrile instead of the test compounds.
# (§2) Seven metabolites were simultaneously determined using a tandem mass spectrometer (TSQ Quantum Access; Thermo Scientific, San Jose, CA, USA) equipped with an electrospray ionization (ESI) source coupled to a NANOSPACE SI-2 LC system (Shiseido, Tokyo, Japan). The column and autosampler temperatures were 50 and 6 °C, respectively. The ESI source settings for the ionization of metabolites were as follows: polarity, positive ion mode; capillary voltage, 4200 V; capillary temperature, 330 °C; vaporizer temperature, 350 °C; auxiliary gas pressure, 15 psi; and sheath gas pressure, 35 psi. […] Analytical data were processed using Xcalibur™ software (Thermo Scientific, San Jose, CA, USA).
# (§3) The IC50 values were calculated using SigmaPlot ver. 11.0 (Systat Software, Inc., San Jose, CA, USA). Ki, kinact, and the inhibition mode were determined using Enzyme Kinetics ver. 1.1 (Systat Software, Inc.).
# CYP1A2 [4] = target: T5, CYP1A2 (Homo sapiens, UniProt P05177); settings: microsomes
# T5 sequence (P05177 1-516): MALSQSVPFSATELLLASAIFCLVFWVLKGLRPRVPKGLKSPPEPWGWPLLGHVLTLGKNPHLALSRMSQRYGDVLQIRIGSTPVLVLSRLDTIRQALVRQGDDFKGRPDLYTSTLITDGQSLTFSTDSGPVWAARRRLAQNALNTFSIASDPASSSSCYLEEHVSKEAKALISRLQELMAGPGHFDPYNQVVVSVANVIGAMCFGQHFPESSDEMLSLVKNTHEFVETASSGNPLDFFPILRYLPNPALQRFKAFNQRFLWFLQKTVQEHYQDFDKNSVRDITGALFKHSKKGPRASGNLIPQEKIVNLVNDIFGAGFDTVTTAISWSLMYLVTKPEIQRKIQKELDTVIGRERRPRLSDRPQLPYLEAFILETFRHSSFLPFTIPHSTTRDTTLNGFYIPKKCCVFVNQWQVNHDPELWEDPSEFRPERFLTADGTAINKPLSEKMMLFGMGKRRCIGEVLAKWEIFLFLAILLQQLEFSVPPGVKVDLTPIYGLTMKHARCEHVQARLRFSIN
# Experimental: as §1, §2
# (§4) The IC50 values were calculated using SigmaPlot ver. 11.0 (Systat Software, Inc., San Jose, CA, USA).
# CYP3A4 [5] = target: T2, CYP3A4; settings: microsomes
# Experimental: as §1, §2, §3
# [6] = test system: eight CYP enzymes (CYPs 1A2, 2A6, 2B6, 2C8, 2C9, 2C19, 2D6, and 3A4); test: IC50 shift after 30-min pre-incubation with NADPH, panel of eight CYP enzymes; settings: human liver microsomes
# Experimental: as §1
# After 3 min pre-incubation at 37 °C, the reaction mixtures were incubated with the addition of NADPH in a shaking water bath for 15 min at 37 °C. The reaction was stopped by adding 100 μL of ice-cold d9-1′-hydroxybufuralol (internal standard) in methanol. The mixtures were centrifuged at 13,000× g for 4 min at 4 °C. All incubations were performed in triplicate, and the average values were used for the subsequent calculations. […] Then, the reaction mixtures were incubated with the addition of NADPH and bupropion for 15 min at 37 °C. […]
# CYP2C19 [7] = target: T6, CYP2C19 (Homo sapiens, UniProt P33261)
# Experimental: as §1, §2, §4
# CYP2A6 = target: T7, CYP2A6 (Homo sapiens, UniProt P11509); test: CYP2A6-catalyzed coumarin 7-hydroxylation, substrate cocktail, LC-MS/MS; settings: human liver microsomes
# T7 sequence (P11509 1-494): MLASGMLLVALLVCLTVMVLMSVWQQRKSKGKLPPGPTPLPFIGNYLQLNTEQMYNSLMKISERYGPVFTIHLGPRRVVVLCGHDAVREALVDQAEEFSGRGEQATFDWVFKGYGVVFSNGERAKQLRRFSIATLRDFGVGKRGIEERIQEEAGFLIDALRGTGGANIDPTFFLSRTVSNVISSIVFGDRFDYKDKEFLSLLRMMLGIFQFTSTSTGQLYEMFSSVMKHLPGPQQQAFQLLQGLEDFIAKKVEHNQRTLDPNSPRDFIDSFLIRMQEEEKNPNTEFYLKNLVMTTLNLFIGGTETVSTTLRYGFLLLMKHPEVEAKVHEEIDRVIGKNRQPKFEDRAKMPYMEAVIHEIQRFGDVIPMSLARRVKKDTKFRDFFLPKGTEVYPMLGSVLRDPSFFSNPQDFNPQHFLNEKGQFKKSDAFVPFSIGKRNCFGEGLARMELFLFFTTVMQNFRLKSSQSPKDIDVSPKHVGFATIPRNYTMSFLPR
# Experimental: as §1, §2, §4
# CYP2C9 [8] = target: T1, CYP2C9; settings: microsomes
# Experimental: as §1, §2, §4
# CYP2C8 [9] = target: T8, CYP2C8 (Homo sapiens, UniProt P10632)
# T8 sequence (P10632 1-490): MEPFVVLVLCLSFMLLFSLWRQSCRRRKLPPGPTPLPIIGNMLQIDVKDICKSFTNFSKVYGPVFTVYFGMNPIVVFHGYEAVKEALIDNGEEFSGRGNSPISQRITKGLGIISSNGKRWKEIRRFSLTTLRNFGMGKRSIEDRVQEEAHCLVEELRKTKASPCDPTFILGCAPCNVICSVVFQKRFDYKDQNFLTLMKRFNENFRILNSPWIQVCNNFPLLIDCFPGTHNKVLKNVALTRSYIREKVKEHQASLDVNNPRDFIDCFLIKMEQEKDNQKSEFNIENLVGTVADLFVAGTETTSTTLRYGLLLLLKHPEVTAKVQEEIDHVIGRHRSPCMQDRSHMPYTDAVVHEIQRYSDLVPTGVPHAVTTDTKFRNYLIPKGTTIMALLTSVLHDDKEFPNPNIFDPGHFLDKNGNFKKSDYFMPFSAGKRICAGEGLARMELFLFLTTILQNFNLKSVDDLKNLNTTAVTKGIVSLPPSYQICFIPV
# Experimental: as §1, §2, §4
# CYP3A4 [10] = target: T2, CYP3A4; test: CYP3A4-catalyzed midazolam 1′-hydroxylation, substrate cocktail, LC-MS/MS; settings: human liver microsomes
# Experimental: as §1, §2, §3
# CYP2C8 [11] = target: T8, CYP2C8; test: CYP2C8-catalyzed amodiaquine N-deethylation, substrate cocktail, LC-MS/MS; settings: human liver microsomes
# Experimental: as §1, §2, §4
# CYP2C19 [12] = target: T6, CYP2C19; test: CYP2C19-catalyzed [S]-mephenytoin 4′-hydroxylation, substrate cocktail, LC-MS/MS; settings: human liver microsomes
# Experimental: as §1, §2, §4
# CYP2D6 [13] = target: T4, CYP2D6; test: CYP2D6-catalyzed bufuralol 1′-hydroxylation, substrate cocktail, LC-MS/MS; settings: human liver microsomes
# Experimental: as §1, §2, §3
# CYP1A2 [14] = target: T5, CYP1A2; test: CYP1A2-catalyzed phenacetin O-deethylation, substrate cocktail, LC-MS/MS; settings: human liver microsomes
# Experimental: as §1, §2, §4
# CYP2C9 [15] = target: T1, CYP2C9; test: CYP2C9-catalyzed diclofenac 4′-hydroxylation, substrate cocktail, LC-MS/MS; settings: human liver microsomes
# Experimental: as §1, §2, §4
# CYP2C19 [16] = target: T6, CYP2C19; settings: microsomes
# Experimental: as §1, §2, §4
# T2 sequence (P08684 whole entry): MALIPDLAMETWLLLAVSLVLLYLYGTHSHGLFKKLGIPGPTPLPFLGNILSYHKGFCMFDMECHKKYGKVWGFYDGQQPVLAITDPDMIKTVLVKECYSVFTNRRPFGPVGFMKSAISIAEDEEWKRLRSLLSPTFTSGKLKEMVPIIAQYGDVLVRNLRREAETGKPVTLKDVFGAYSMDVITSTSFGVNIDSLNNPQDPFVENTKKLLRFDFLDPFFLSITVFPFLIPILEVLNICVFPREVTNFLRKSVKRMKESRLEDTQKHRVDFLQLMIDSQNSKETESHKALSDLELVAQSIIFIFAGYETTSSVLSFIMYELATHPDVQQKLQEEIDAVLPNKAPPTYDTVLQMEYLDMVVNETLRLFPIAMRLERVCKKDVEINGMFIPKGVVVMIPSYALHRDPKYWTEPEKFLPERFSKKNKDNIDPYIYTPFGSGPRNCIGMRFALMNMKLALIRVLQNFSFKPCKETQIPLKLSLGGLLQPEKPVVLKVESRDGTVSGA
# T4 sequence (P10635 whole entry): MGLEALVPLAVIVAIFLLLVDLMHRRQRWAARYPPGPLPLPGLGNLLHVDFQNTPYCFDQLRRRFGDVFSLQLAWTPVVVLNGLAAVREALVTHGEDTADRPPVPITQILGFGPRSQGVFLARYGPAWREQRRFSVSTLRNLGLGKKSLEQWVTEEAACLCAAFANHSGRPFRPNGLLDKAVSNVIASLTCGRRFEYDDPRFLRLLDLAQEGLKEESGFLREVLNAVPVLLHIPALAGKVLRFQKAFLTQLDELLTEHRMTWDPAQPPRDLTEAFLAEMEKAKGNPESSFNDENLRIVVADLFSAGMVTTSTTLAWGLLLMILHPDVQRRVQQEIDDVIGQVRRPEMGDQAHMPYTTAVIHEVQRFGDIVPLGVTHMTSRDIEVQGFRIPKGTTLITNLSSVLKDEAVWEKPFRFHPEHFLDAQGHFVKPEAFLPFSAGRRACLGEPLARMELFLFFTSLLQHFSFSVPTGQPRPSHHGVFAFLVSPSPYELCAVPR
# T1 sequence (P11712 whole entry): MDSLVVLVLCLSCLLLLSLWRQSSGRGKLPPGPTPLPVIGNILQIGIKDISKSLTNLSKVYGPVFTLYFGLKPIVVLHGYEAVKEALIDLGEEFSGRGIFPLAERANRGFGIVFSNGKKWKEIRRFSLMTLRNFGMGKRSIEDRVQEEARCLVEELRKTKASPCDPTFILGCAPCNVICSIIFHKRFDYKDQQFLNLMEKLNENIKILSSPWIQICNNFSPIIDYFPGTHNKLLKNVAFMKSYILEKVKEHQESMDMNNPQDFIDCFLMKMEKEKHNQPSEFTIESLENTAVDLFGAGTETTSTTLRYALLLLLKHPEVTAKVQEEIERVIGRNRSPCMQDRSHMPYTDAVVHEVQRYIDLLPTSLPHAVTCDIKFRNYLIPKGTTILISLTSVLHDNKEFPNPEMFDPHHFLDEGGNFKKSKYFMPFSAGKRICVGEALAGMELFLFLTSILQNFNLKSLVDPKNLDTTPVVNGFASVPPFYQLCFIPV
# T6 sequence (P33261 whole entry): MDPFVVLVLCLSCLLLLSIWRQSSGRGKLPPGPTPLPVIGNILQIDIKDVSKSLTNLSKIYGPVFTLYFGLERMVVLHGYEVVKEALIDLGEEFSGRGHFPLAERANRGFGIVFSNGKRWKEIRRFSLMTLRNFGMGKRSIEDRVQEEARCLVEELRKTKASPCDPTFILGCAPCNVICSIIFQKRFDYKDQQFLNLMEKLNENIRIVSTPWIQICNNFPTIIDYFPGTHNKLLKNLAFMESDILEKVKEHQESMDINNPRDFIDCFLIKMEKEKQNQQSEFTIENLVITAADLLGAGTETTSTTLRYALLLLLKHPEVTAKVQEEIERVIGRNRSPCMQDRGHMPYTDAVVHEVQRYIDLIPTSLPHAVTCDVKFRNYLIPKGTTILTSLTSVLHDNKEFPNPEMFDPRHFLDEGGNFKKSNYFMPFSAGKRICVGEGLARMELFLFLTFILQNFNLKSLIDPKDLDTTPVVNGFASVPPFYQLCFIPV
smiles,measurement,setting,value
COc1cc([C@H]2OC[C@H]3[C@@H]2CO[C@@H]3c2ccc3c(c2)OCO3)cc(OC)c1OC [aschantin],"kinact, mechanism-based inhibition of CYP2C9",CYP2C9 [1],0.044 min⁻¹
same,Ki,"CYP2C9 [1]; read-out: Ki, mechanism-based inhibition of CYP2C9",3.7 µM
same,kinact/Ki against CYP3A4,CYP3A4 [2],8.2e+07 M⁻¹ s⁻¹
CC(C)=CCC/C(C)=C/COc1c2ccoc2cc2oc(=O)ccc12 [bergamottin],kinact/Ki against CYP3A4,CYP3A4 [2],3.3e+07 M⁻¹ s⁻¹
CC[C@H]1OC(=O)[C@H](C)[C@@H](O[C@H]2C[C@@](C)(OC)[C@@H](O)[C@H](C)O2)[C@H](C)[C@@H](O[C@@H]2O[C@H](C)C[C@H](N(C)C)[C@H]2O)[C@](C)(OC)C[C@@H](C)C(=O)[C@H](C)[C@@H](O)[C@]1(C)O [clarithromycin],kinact/Ki against CYP3A4,CYP3A4 [2],1.7e+07 to 2.17e+08 M⁻¹ s⁻¹
COc1cc([C@@H]2c3cc4c(cc3C[C@H]3COC(=O)[C@@H]32)OCO4)cc(OC)c1OC [deoxypodophyllotoxin],Ki,"CYP2C9 [1]; read-out: Ki, CYP2C9 activity",3.5 µM
COc1cc([C@H]2OC[C@H]3[C@@H]2CO[C@@H]3c2cc(OC)c(OC)c(OC)c2)cc(OC)c1OC [dimethyllirioresinol],Inhibition of CYP2B6 activity at 100 μM,CYP2B6,without inhibition
same,Inhibition of CYP2D6 activity at 100 μM,CYP2D6 [3],without inhibition
same,Inhibition of CYP1A2 activity at 100 μM,CYP1A2 [4],without inhibition
same,Inhibition of CYP3A4 activity at 100 μM,CYP3A4 [5],without inhibition
same,IC50 value shift of eight CYP enzymes after 30-min pre-incubation,[6],did not cause the IC50 value shift
same,IC50,CYP2C19 [7],55.1 µM and 49.8 µM
same,Inhibition of CYP2A6 activity at 100 μM,CYP2A6,without inhibition
same,Inhibition of CYP2C9 activity at 100 μM,CYP2C9 [8],without inhibition
same,IC50,CYP2C8 [9],85 µM and 67.2 µM
COc1ccc([C@@H]2OC[C@H]3[C@@H]2CO[C@@H]3c2cc(OC)c(OC)c(OC)c2)cc1OC [epimagnolin A],Inhibition of CYP3A4 activity at 100 μM,CYP3A4 [10],negligibly inhibited
same,Inhibition of CYP2B6 activity at 100 μM,CYP2B6,negligibly inhibited
same,Inhibition of CYP2C8 activity at 100 μM,CYP2C8 [11],negligibly inhibited
same,Inhibition of CYP2C19 activity at 100 μM,CYP2C19 [12],negligibly inhibited
same,Inhibition of CYP2D6 activity at 100 μM,CYP2D6 [13],negligibly inhibited
same,Inhibition of CYP1A2 activity at 100 μM,CYP1A2 [14],negligibly inhibited
same,Inhibition of CYP2C9 activity at 100 μM,CYP2C9 [15],negligibly inhibited
same,Inhibition of CYP2A6 activity at 100 μM,CYP2A6,negligibly inhibited
COc1ccc([C@H]2OC[C@H]3[C@@H]2CO[C@@H]3c2ccc(OC)c(OC)c2)cc1OC [eudesmin],Inhibition of CYP2B6 activity at 100 μM,CYP2B6,negligibly inhibited
same,Inhibition of CYP2D6 activity at 100 μM,CYP2D6 [3],negligibly inhibited
same,Inhibition of CYP1A2 activity at 100 μM,CYP1A2 [4],negligibly inhibited
same,Inhibition of CYP2C19 activity at 100 μM,CYP2C19 [16],negligibly inhibited
same,Inhibition of CYP2C8 activity at 100 μM,CYP2C8 [11],negligibly inhibited
same,Inhibition of CYP3A4 activity at 100 μM,CYP3A4 [5],negligibly inhibited
same,IC50 value shift of eight CYP enzymes after 30-min pre-incubation,[6],did not cause the IC50 value shift
same,Inhibition of CYP2A6 activity at 100 μM,CYP2A6,negligibly inhibited
same,Inhibition of CYP2C9 activity at 100 μM,CYP2C9 [8],negligibly inhibited
CNCCC(Oc1ccc(C(F)(F)F)cc1)c1ccccc1 (centres unmarked) [fluoxetine],kinact/Ki against CYP3A4,CYP3A4 [2],5.33e+07 M⁻¹ s⁻¹
COc1ccc([C@H]2OC[C@H]3[C@@H]2CO[C@@H]3c2cc(OC)c(OC)c(OC)c2)cc1OC [magnolin],Inhibition of CYP3A4 activity at 100 μM,CYP3A4 [10],negligibly inhibited
same,Inhibition of CYP2B6 activity at 100 μM,CYP2B6,negligibly inhibited
same,Inhibition of CYP2C8 activity at 100 μM,CYP2C8 [11],negligibly inhibited
same,Inhibition of CYP2C19 activity at 100 μM,CYP2C19 [12],negligibly inhibited
same,Inhibition of CYP2D6 activity at 100 μM,CYP2D6 [13],negligibly inhibited
same,Inhibition of CYP1A2 activity at 100 μM,CYP1A2 [14],negligibly inhibited
same,Inhibition of CYP2C9 activity at 100 μM,CYP2C9 [15],negligibly inhibited
same,Inhibition of CYP2A6 activity at 100 μM,CYP2A6,negligibly inhibited
COc1cc([C@@H]2c3cc4c(cc3[C@H](O)[C@H]3COC(=O)[C@H]23)OCO4)cc(OC)c1OC [podophyllotoxin],Ki,"CYP2C9 [1]; read-out: Ki, CYP2C9 activity",2 µM
same,kinact/Ki against CYP3A4,CYP3A4 [2],2.272e+08 M⁻¹ s⁻¹
O=c1c2ccccc2nc2n1CCc1c-2[nH]c2ccccc12 [rutaecarpine],kinact/Ki against CYP3A4,CYP3A4 [2],5.98e+07 M⁻¹ s⁻¹
